Measurements reported in US20090124635A1, “CHEMICAL COMPOUNDS” (priority 2005, published 2009).

What follows are compounds tested on HIV-1 fusion (assay: gp160 induced cell-cell fusion assay (HeLa P4 / CHO-Tat10 cell lines)). Details: Human immunodeficiency virus 1, HeLaP4, read-out: IC50 against HIV-1 fusion.
Format: cell-based
Procedure: The gp160 induced cell-cell fusion assay uses a HeLa P4 cell line and a CHO-Tat10 cell line.
The HeLa P4 cell line expresses CCR5 and CD4 and has been transfected with HIV-1 LTR-β-Galactosidase. The media for this cell line is Dulbecco modified eagle's medium (D-MEM) (without L-glutamine) containing 10% foetal calf serum (FCS), 2 mM L-glutamine penicillin/streptomycin (Pen/Strep; 100 U/mL penicillin+[…] streptomycin), and 1 μg/ml puromycin.
The CHO cell line is a Tat (transcriptional trans activator)-expressing clone from a CHO JRR17.1 cell line that has been transfected with pTat puro plasmid. The media for this cell line is rich medium for mammalian cell culture originally developed at Roswell Park Memorial Institute RPMI1640 (without L-glutamine) containing 10% FCS, 2 mM L-glutamine, 0.5 mg/ml Hygromycin B and 12 μg/ml puromycin. The CHO JRR17.1 line expresses gp160 (JRFL) and is a clone that has been selected for its ability to fuse with a CCR5/CD4 expressing cell line.
Upon cell fusion, Tat present in the CHO cell is able to transactivate the HIV-1 long terminal repeat (LTR) present in the HeLa cell leading to the expression of the β-Galactosidase enzyme. This expression is then measured using a Fluor Ace™ β-Galactosidase reporter assay kit (Bio-Rad cat no. 170-3150). This kit is a quantitative fluorescent assay that determines the level of expression of β-galactosidase using 4-methylumbelliferul-galactopyranoside (MUG) as substrate. β-Galactosidase hydrolyses the fluorogenic substrate resulting in release of the fluorescent molecule 4-methylumbelliferone (4MU). Fluorescence of 4-methylumbelliferone is then measured on a fluorometer using an excitation wavelength of 360 nm and emission wavelength of 460 nm.
Compounds that inhibit fusion will give rise to a reduced signal and, following solubilisation in an appropriate solvent and dilution in culture medium, a dose-response curve for each compound can be used to calculate IC50 values.
In the case of Cc1ccnc(C)c1C(=O)N1CCC(C)(N2CCC(N(Cc3ccccc3)C(=O)C3CC(F)(F)C3)CC2)CC1 [Example 1, N-benzyl-N-{1′-[(2,4-dimethylpyridin-3-yl)carbonyl]-4′-methyl-1,4′-bipiperidinyl-4-yl}-3,3-difluorocyclobutanecarboxamide], the IC50 is reported as 0.013 nM.
Work on Cc1ncnc(C)c1C(=O)N1C[C@H]2CC[C@@H](C1)[C@H]2N1CCC(N(Cc2ccccc2)C(=O)C2CC2)CC1 [Example 10, N-benzyl-N-(1-{(8-syn)-3-[(4,6-dimethylpyrimidin-5-yl)carbonyl]-3-azabicyclo}piperidin-4-yl)cyclopropanecarboxamide] yielded an IC50 of 516 nM.
For Cc1ncnc(C)c1C(=O)N1CCC(C)(N2CCC(N(Cc3ccccc3F)C(=O)C3CC(F)(F)C3)CC2)CC1 [Example 25, N-{1′-[(4,6-dimethylpyrimidin-5-yl)carbonyl]-4′-methyl-1,4′-bipiperidin-4-yl}-3,3-difluoro-N-(2-fluorobenzyl)cyclobutanecarboxamide], the IC50 was 5.5 nM.
For Cc1ncnc(C)c1C(=O)N1CCC(C)(N2CCC(N(Cc3ccccc3)S(C)(=O)=O)CC2)CC1 [Example 29, N-benzyl-N-{1′-[(4,6-dimethylpyrimidin-5-yl)carbonyl]-4′-methyl-1,4′-bipiperidin-4-yl}methanesulfonamide], the IC50 was 346 nM.
For Cc1ccnc(C)c1C(=O)N1CCC(C)(N2CCC(N(Cc3cccc(F)c3)C(=O)C3CC3)CC2)CC1 [Example 47, N-{1′-[(2,4-dimethylpyridin-3-yl)carbonyl]-4′-methyl-1,4′-bipiperidin-4-yl}-N-(3-fluorobenzyl)cyclopropanecarboxamide.2HCl], the IC50 was 0.343 nM.
